Consider 18 compounds from ChEMBL document CHEMBL1140634, “The biology and chemistry of hyperlipidemia” (Bioorg Med Chem, 2007).

The species entered for one experiment is Oryctolagus cuniculus. The experiment is described as follows: Decrease in aortic arch lesions in cholesterol fed rabbit. The experiment is classed as functional. More on the design: scale not given: the % may be the effect or the level left.
A short description of experiment [1]: Inhibition of rat liver microsomal squalene synthase.
The species named for experiment [2] is Rattus norvegicus. The experiment is described as follows: Inhibition of [14C]cholesterol synthesis in rat liver after 1 hr. It is filed as functional.
Experiment [3] relates to Rattus norvegicus. The experiment is described as follows: Reduction in LDL cholesterol in rat plasma at 20 mg/kg, po qd for 7 days. Details: scale not given: the % may be the effect or the level left. It is filed as functional.
For experiment [4], the target named is T1, Lanosterol 14-alpha demethylase (Homo sapiens, UniProt Q16850).
T1 sequence (Q16850 whole entry): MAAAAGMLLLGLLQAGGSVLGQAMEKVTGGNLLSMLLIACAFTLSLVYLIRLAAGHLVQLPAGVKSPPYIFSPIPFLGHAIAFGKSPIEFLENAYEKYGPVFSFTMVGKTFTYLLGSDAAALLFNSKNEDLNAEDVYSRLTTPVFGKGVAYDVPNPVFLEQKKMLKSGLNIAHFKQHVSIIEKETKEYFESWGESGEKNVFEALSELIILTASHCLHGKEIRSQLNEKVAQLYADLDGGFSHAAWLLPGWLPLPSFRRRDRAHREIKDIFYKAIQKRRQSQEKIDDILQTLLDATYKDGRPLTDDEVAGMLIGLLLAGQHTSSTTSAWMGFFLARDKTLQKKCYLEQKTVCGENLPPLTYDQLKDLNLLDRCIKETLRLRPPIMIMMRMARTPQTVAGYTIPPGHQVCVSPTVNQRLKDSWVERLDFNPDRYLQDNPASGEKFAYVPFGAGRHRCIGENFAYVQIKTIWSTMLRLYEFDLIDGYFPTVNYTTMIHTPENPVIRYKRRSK
The experiment is described as follows: Inhibition of LDM in human HepG2 cells at 2 nM. It is filed as cell-based.

Experiment [5] has as its target T2, 3-hydroxy-3-methylglutaryl-coenzyme A reductase (Homo sapiens) (UniProt P04035).
T2 sequence (whole entry): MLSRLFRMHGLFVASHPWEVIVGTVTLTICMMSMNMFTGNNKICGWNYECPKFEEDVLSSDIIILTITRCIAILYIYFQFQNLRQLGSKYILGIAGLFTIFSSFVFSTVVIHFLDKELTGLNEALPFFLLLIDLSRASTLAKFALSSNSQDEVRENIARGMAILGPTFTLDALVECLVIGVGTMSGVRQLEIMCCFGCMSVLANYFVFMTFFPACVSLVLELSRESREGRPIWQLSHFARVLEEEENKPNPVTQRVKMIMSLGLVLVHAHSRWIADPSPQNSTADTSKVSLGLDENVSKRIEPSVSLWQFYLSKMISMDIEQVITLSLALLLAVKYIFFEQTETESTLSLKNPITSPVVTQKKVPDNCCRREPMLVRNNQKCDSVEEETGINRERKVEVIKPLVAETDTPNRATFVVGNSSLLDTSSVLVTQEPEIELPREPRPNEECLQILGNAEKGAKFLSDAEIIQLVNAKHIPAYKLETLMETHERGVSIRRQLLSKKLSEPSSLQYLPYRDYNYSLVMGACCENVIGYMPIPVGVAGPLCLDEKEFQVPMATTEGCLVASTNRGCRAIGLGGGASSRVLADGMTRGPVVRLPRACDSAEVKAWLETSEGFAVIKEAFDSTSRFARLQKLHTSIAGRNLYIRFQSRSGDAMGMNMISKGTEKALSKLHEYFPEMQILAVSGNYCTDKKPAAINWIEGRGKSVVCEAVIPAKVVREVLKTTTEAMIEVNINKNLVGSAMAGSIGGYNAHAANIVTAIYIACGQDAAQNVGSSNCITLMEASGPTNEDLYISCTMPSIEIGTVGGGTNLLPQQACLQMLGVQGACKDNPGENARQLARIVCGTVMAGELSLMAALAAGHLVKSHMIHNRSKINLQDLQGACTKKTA
The experiment is described as follows: Inhibition of HMG-CoA reductase relative to control. The conditions noted are these: concentration not given here.

The target of experiment [6] is T3, Pancreatic triacylglycerol lipase (Homo sapiens, UniProt P16233).
T3 sequence (P16233 whole entry): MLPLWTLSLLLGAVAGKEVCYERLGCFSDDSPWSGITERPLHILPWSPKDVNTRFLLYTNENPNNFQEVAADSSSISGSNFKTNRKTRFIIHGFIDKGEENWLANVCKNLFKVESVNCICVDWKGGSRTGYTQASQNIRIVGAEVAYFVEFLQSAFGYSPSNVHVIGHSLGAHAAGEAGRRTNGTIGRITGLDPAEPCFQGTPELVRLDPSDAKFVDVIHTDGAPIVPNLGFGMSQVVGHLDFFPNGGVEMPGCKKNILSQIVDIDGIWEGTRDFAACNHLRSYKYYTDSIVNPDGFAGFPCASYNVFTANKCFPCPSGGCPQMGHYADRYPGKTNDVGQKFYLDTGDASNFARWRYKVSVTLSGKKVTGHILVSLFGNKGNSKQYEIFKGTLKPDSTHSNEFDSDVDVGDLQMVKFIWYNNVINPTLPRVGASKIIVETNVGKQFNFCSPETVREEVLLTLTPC
The experiment is described as follows: Inhibition of pancreatic lipase.

Experiment [7] is filed under the species Rattus norvegicus. The experiment is described as follows: Reduction of cholesterol absorption in normal diet fed rat. It is filed as functional.
Experiment [8] is described as follows: Inhibition of pig OSC. More on the design: species or system Sus scrofa.
A further experiment has as its target T4, Lanosterol synthase (Candida albicans (strain SC5314 / ATCC MYA-2876) (Yeast), UniProt Q04782).
T4 sequence (Q04782 whole entry): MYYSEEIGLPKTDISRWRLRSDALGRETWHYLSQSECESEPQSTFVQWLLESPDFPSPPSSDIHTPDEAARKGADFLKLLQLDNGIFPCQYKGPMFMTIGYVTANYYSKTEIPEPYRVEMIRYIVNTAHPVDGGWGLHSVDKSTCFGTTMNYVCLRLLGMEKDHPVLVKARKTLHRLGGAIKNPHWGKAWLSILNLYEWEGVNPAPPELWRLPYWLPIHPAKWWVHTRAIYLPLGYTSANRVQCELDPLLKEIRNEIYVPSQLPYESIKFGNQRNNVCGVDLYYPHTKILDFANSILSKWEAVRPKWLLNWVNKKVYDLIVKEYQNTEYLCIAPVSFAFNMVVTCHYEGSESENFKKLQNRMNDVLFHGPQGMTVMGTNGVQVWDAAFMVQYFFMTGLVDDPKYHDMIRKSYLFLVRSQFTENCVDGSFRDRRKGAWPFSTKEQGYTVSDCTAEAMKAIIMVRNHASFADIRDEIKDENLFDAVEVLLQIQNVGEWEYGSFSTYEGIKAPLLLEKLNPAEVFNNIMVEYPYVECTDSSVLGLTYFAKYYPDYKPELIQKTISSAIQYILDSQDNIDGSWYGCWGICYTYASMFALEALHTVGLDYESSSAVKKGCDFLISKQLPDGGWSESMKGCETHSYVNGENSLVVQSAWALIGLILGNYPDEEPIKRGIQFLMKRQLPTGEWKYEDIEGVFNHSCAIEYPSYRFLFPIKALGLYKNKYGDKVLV

In experiment [9] the test system is Rattus norvegicus. The experiment is described as follows: Inhibition of cholesterol biosynthesis in po dosed Sprague-Dawley rat. It is filed as functional.
The nature of experiment [10]: Inhibition of ferrous/ascorbate induced lipid peroxidation of microsomal membrane lipids. It is filed as functional.
Experiment [11] deals with HepG2. The experiment is described as follows: Inhibition of cholesterol synthesis in human HepG2 cells. It is filed as functional.
Experiment [12] relates to HepG2. The experiment is described as follows: Inhibition of fatty acid synthesis in human HepG2 cells. It is filed as functional.
For experiment [13], the species on record is Rattus norvegicus. The experiment is described as follows: Inhibition of cholesterol synthesis in rat. The experiment is classed as functional.
Experiment [14] is filed under the species Rattus norvegicus. The experiment is described as follows: Inhibition of fatty acid synthesis in rat. The experiment is classed as functional.
The target in experiment [15] is T5, Lanosterol 14-alpha demethylase (Rattus norvegicus, UniProt Q64654).
T5 sequence (Q64654 whole entry): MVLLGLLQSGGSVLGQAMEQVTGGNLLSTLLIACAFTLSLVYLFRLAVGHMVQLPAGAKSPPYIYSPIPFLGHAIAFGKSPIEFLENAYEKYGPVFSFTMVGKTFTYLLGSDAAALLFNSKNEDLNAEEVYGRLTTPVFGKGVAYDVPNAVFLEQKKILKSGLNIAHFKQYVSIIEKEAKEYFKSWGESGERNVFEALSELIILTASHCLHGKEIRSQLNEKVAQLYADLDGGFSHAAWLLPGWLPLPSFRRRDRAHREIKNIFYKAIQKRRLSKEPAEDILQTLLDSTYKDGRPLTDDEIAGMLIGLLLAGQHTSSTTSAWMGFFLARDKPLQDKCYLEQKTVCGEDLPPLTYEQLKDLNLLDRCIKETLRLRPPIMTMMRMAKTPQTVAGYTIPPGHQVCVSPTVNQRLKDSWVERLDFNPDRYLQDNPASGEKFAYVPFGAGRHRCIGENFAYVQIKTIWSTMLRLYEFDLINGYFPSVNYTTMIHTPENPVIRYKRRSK
The experiment is described as follows: Inhibition of rat liver LDM.

Experiment [16] in a line: Inhibition of HMG-CoA synthase.
In another experiment the test system is Rhesus monkey. The experiment is described as follows: Decrease in nonHDL-C level in rhesus monkey plasma at 50 mg/kg, bid for 21 days. The experiment is classed as functional, Macaca mulatta. More on the design: scale not given: the % may be the effect or the level left.

Description for Lanosterol synthase: Inhibition of Candida albicans OSC

Take `CCC(CC)CC1(C(=O)Nc2ccccc2SC(=O)C(C)C)CCCCC1` [DALCETRAPIB]: the Activity in the experiment filed under Oryctolagus cuniculus is 70%.
In [1], `O[C@@]1(c2ccc(-c3ccc4ncccc4c3)cc2)CN2CCC1CC2` yielded an IC50 of 0.0006 µM. The ED50 in the experiment filed under Rattus norvegicus [2] worked out at 5 mg/kg. The compound also returned an Activity in the experiment on Rattus norvegicus [3] of 43%.
Take `CC(C)CCC[C@@H](C)[C@H]1C=C[C@@]2(CC(=O)O)C3=C(CC[C@]12C)[C@@]1(C)CC[C@H](O)C(C)(C)[C@@H]1CC3`: in experiment [4], the inhibition at 0.002 µM turned out to be 50%. In [5], this compound had an inhibition of 30%.
Take `CC(C)c1cc2c(c(O)c1O)[C@@]13CCCC(C)(C)[C@@H]1C[C@@H]2OC3=O` [CARNOSOL]: the IC50 in experiment [6] is 13 µM.
Take `CC1CCN(C(=O)Oc2ccc(Oc3ccccc3)cc2)CC1`: the ED50 in the experiment listed under Rattus norvegicus [7] was determined as 10 mg/kg.
For `CC(C)=CCCC(C)SCC/C(C)=C/CC/C=C(\C)CC/C=C(\C)CCC1OC1(C)C` (centres undefined), the IC50 in [8] came out at 0.05 µM; on Lanosterol synthase, 0.00022 µM. The same compound yielded a Ki in experiment [8] of 0.5 µM.
The compound `COc1ccccc1/C(C)=C/CN(C)CCCC(P(=O)(O)OCOC(=O)C(C)(C)C)P(=O)(OCOC(=O)C(C)(C)C)OCOC(=O)C(C)(C)C` (centres undefined) registered an ED50 with Rattus norvegicus [9] of 1.6 mg/kg.
`CN1CC(O)(c2ccc(-c3ccccc3)cc2)OC2CCCCC21` (centres undefined) showed an IC50 in experiment [10] of 250 µM.
Consider `O=C(O)C[C@@]1(O)C[C@@H](CCCCCCc2ccc(Cl)cc2Cl)OC1=O`, for which the Inhibition in the experiment with HepG2 [11] was 91%; with HepG2 [12], 82%; in the experiment filed under Rattus norvegicus [13], 76%; in the experiment filed under Rattus norvegicus [14], 39%.
In [15], `CC(C)CCC[C@@H](C)[C@H]1C/C(=N\O)[C@@]2(C)[C@@H]3CC[C@@]4(C)C[C@@H](O)CC[C@]4(O)[C@H]3CC[C@]12C` returned an IC50 of 55 µM.
As to `CC(C)c1cc2c(c(O)c1O)[C@@]1(C(=O)O)CCCC(C)(C)[C@@H]1CC2` [CARNOSIC ACID], the IC50 in experiment [6] worked out at 36 µM.
Consider `C/C=C/CCCC/C=C/C(=O)N[C@@H](C[C@@]1(O)C(=O)C2OC2C2OC21)C(=O)OC` (some centres undefined), for which inhibition in experiment [16] was half-maximal at 31 µM (IC50).
`COc1ccccc1/C(C)=C/CN(C)CCCC(P(=O)(O)O)P(=O)(O)O`: the IC50 in experiment [1] stood at 0.0036 µM.
In [16], `CCOc1ccc(CC(=O)OC[C@@H]2[C@H](CC)C(=O)N2Cc2ccc(S(=O)(=O)O)cc2)cc1OCC` yielded an IC50 of 0.002 µM.
As to `F/C(COc1ccc2c(c1)[nH]c1ccccc12)=C1/CN2CCC1CC2`, the ED50 in the experiment filed under Rattus norvegicus [2] stood at 32 mg/kg. The compound also registered an Activity in the experiment with Rhesus monkey of 37%.
`C/C=C/CCCC/C=C/C(=O)N[C@H](C[C@]1(O)C(=O)C2OC2C2OC21)C(=O)OC` (some centres undefined) had a half-inhibitory concentration (IC50) in experiment [16] of 0.098 µM.
The same measure, in the same setting: the result for `C/C=C/CCCC/C=C/C(=O)NC(CC1(O)C(=O)C2OC2C2OC21)C(=O)OC` (centres undefined) reads 0.15 µM.
The compound `O[C@]1(c2ccc(-c3ccc4ncccc4c3)cc2)CN2CCC1CC2` displayed an IC50 in experiment [1] of 0.0006 µM. Further, the ED50 in the experiment listed under Rattus norvegicus [2] is 5 mg/kg. For the same compound, the Activity in the experiment on Rattus norvegicus [3] was determined as 50%.
